The target of this experiment is SARS2 coronavirus 3CL protease (Severe acute respiratory syndrome coronavirus 2, UniProt P0DTD1). The experiment is described as follows: biochemical. The following applies: 5 nM enzyme, 30 min pre-incubation with compound, 15 μM peptide substrate, 4 h at room temperature; read-out: FRET Potency (nM); IC50 values in the SARS2 3CLPro FRET assay.
Consider `CNC(=O)C(=O)[C@H](C[C@@H]1C[C@@H](C)NC1=O)NC(=O)c1cc(Cl)c(F)cc1NC(=O)OC` [Example 132, methyl N-[4-chloro-5-fluoro-2-[[(1S)-3-(methylamino)-1-[[(3S,5R)-5-methyl-2-oxo-pyrrolidin-3-yl]methyl]-2,3-dioxo-propyl]carbamoyl]phenyl] carbamate], for which the IC50 is 13.8 nM. For `CNC(=O)C(=O)[C@H](C[C@@H]1C[C@@H](C)NC1=O)NC(=O)c1cc(Cl)ccc1NC(=O)OC1CCC1` [Example 151, cyclobutyl N-[4-chloro-2-[[(1S)-3-(methylamino)-1-[[(3S,5R)-5-methyl-2-oxo-pyrrolidin-3-yl]methyl]-2,3-dioxo-propyl]carbamoyl]phenyl] carbamate] the value was 5.1 nM; for `CNC(=O)C(=O)[C@H](C[C@@H]1C[C@@H](C)NC1=O)NC(=O)c1cc(Cl)cc(F)c1NC(=O)c1ccnc(C(F)(F)F)c1` [Example 224, N-[4-chloro-2-fluoro-6-[[(1S)-3-(methylamino)-1-[[(3S,5R)-5-methyl-2-oxo-pyrrolidin-3-yl]methyl]-2,3-dioxo-propyl]carbamoyl]phenyl]-2-(trifluoromethyl)pyridine-4-carboxamide], 7.2 nM; for `CNC(=O)C(=O)[C@H](C[C@@H]1C[C@@H](C)NC1=O)NC(=O)c1cc(F)ccc1NC(=O)OC` [Example 104, methyl N-[4-fluoro-2-[(1S)-3-(methylamino)-1-[[(3S,5R)-5-methyl-2-oxo-pyrrolidin-3-yl]methyl]-2,3-dioxo-propyl]carbamoyl]phenyl] carbamate], 15.3 nM. For `C[C@@H]1C[C@@H](C[C@H](NC(=O)c2cc(Cl)ccc2NC(=O)N(C)C)C(=O)C(=O)NC2CC2)C(=O)N1` [Example 148, 5-chloro-N-[(1S)-3-(cyclopropylamino)-1-[[(3S,5R)-5-methyl-2-oxo-pyrrolidin-3-yl]methyl]-2,3-dioxo-propyl]-2-(dimethylcarbamoylamino) benzamide] the value was 24.7 nM. Then `C[C@@H]1C[C@@H](C[C@H](NC(=O)c2cc(Cl)ccc2NC(=O)C2CC23CC3)C(=O)C(=O)NC2CC2)C(=O)N1` (stereo partly drawn) [Example 83, N-[4-chloro-2-[[(1S)-3-(cyclopropylamino)-1-[[(3S,5R)-5-methyl-2-oxo-pyrrolidin-3-yl]methyl]-2,3-dioxo-propyl]carbamoyl]phenyl] spiro[2.2]pentane-2-carboxamide], with 10.5 nM; and `CNC(=O)C(=O)[C@H](C[C@@H]1C[C@@H](C(F)(F)F)NC1=O)NC(=O)c1cc(Cl)ccc1NC(=O)C1CC(F)(F)C1` [Example 41, 5-chloro-2-[(3,3-difluorocyclobutanecarbonyl)amino]-N-[(1S)-3-(methylamino)-2,3-dioxo-1-[[(3R,5S)-2-oxo-5-(trifluoromethyl)pyrrolidin-3-yl]methyl]propyl]benzamide], with 9.9 nM; and `CNC(=O)C(=O)[C@H](C[C@@H]1CCNC1=O)NC(=O)c1cc(Cl)ccc1NC(=O)OC1CC1(F)F` (some centres unmarked) [Example 156], with 14.6 nM. As to `CNC(=O)C(=O)[C@H](C[C@@H]1C[C@@H](C)NC1=O)NC(=O)c1cc(F)c(Cl)cc1NC(=O)OC` [Example 134, methyl N-[5-chloro-4-fluoro-2-[(1S)-3-(methylamino)-1-[[(3S,5R)-5-methyl-2-oxo-pyrrolidin-3-yl]methyl]-2,3-dioxo-propyl]carbamoyl]phenyl] carbamate], the IC50 came to 28.2 nM. Then `C[C@@H]1C[C@@H](C[C@H](NC(=O)c2cc(F)ccc2NC(=O)c2cccc(C(F)(F)F)c2)C(=O)C(=O)NC2CC2)C(=O)N1` [Example 78, N-[(1S)-3-(cyclopropylamino)-1-[[(3S,5R)-5-methyl-2-oxo-pyrrolidin-3-yl]methyl]-2,3-dioxo-propyl]-5-fluoro-2-[[3-(trifluoromethyl)benzoyl]amino]benzamide], with 4.6 nM. Then `CNC(=O)C(=O)[C@H](C[C@@H]1C[C@@H](C)NC1=O)NC(=O)c1cc(Cl)ccc1NC(=O)C1CC(F)(F)C1` [Example 21, 5-chloro-2-[(3,3-difluorocyclobutanecarbonyl)amino]-N-[(1S)-3-(methylamino)-1-[[(3S,5R)-5-methyl-2-oxo-pyrrolidin-3-yl]methyl]-2,3-dioxo-propyl]benzamide], with 24.9 nM; and `CNC(=O)C(=O)[C@H](C[C@@H]1CCNC1=O)NC(=O)c1cc(F)c(F)cc1NC(=O)OC1CC1` [Example 127, cyclopropyl N-[4,5-difluoro-2-[[(1S)-3-(methylamino)-2,3-dioxo-1-[[(3S)-2-oxopyrrolidin-3-yl]methyl]propyl]carbamoyl]phenyl]carbamate], with 7.9 nM; and `C[C@@H]1C[C@@H](C[C@H](NC(=O)c2cc(Cl)cnc2NC(=O)C2CCC(F)(F)CC2)C(=O)C(=O)NC2CC2)C(=O)N1` [Example 39, 5-chloro-N-[(1S)-3-(cyclopropylamino)-1-[[(3S,5R)-5-methyl-2-oxo-pyrrolidin-3-yl]methyl]-2,3-dioxo-propyl]-2-[(4,4-difluorocyclohexanecarbonyl)amino]pyridine-3-carboxamide], with 10.3 nM.

On to `C[C@@H]1C[C@@H](C[C@H](NC(=O)c2cc(C#N)ccc2NC(=O)C23CC(C(F)(F)F)(C2)C3)C(=O)C(=O)NC2CC2)C(=O)N1` [Example 17], for which the IC50 came out at 31.1 nM. As for `CNC(=O)C(=O)[C@H](C[C@@H]1C[C@@H](C)NC1=O)NC(=O)c1cc(Cl)ccc1NC(=O)c1cncc(C(F)(F)F)c1` [Example 91, N-[4-chloro-2-[[(1S)-3-(methylamino)-1-[[(3S,5R)-5-methyl-2-oxo-pyrrolidin-3-yl]methyl]-2,3-dioxo-propyl]carbamoyl]phenyl]-5-(trifluoromethyl)pyridine-3-carboxamide], the IC50 turned out to be 6.1 nM.

As for `CNC(=O)C(=O)[C@H](C[C@@H]1C[C@@H](C)NC1=O)NC(=O)c1cc(Cl)ccc1NC(=O)OC` [Example 9, methyl (4-chloro-2-(((S)-1-((3S,5R)-5-methyl-2-oxopyrrolidin-3-yl)-4-(methylamino)-3,4-dioxobutan-2-yl)carbamoyl)phenyl)carbamate], the IC50 is 7.3 nM.

Regarding `CNC(=O)C(=O)[C@H](C[C@@H]1CCNC1=O)NC(=O)c1cc(Cl)ccc1NC(=O)OC(C)C` [Example 128, isopropyl N-[4-chloro-2-[[(1S)-3-(methylamino)-2,3-dioxo-1-[[(3S)-2-oxopyrrolidin-3-yl]methyl]propyl]carbamoyl]phenyl]carbamate], the IC50 is 7.2 nM.

In the case of `CNC(=O)C(=O)[C@H](C[C@@H]1CCNC1=O)NC(=O)c1cc(Cl)ccc1NC(=O)C(C)c1cscn1` (stereo partly drawn) [Example 179, 5-chloro-N-[(1S)-3-(methylamino)-2,3-dioxo-1-[[(3S)-2-oxopyrrolidin-3-yl]methyl]propyl]-2-(2-thiazol-4-ylpropanoylamino)benzamide], the IC50 was 2.5 nM. Then `O=C(NC1CC1)C(=O)[C@H](C[C@@H]1CCNC1=O)NC(=O)c1cc(Cl)ccc1NC(=O)C12CC(F)(C1)C2` [Example 37, N-[4-chloro-2-[[(1S)-3-(cyclopropylamino)-2,3-dioxo-1-[[(3S)-2-oxopyrrolidin-3-yl]methyl]propyl]carbamoyl]phenyl]-3-fluoro-bicyclo[1.1.1]pentane-1-carboxamide], with 10.7 nM.

On to `C[C@@H]1C[C@@H](C[C@H](NC(=O)c2c(NC(=O)c3ccnc(C(F)(F)F)c3)cc(F)c(F)c2F)C(=O)C(=O)NC2CC2)C(=O)N1` [Example 233, N-[2-[[(1S)-3-(cyclopropylamino)-1-[[(3S,5R)-5-methyl-2-oxo-pyrrolidin-3-yl]methyl]-2,3-dioxo-propyl]carbamoyl]-3,4,5-trifluoro-phenyl]-2-(trifluoromethyl)pyridine-4-carboxamide], for which the IC50 was determined as 44 nM. As to `CNC(=O)C(=O)[C@H](C[C@@H]1C[C@@H](C)NC1=O)NC(=O)c1ccccc1NC(=O)OC` [Example 103, methyl N-[2-[[(1S)-3-(methylamino)-1-[[(3S,5R)-5-methyl-2-oxo-pyrrolidin-3-yl]methyl]-2,3-dioxo-propyl]carbamoyl]phenyl] carbamate], the IC50 is 86.2 nM.

Take `CNC(=O)C(=O)[C@H](C[C@@H]1CCNC1=O)NC(=O)c1cc(Cl)ccc1NC(=O)[C@H]1CC1(F)F` [Example 143, 5-chloro-2-[[(1R)-2,2-difluorocyclopropanecarbonyl]amino]-N-[(1S)-3-(methylamino)-2,3-dioxo-1-[[(3S)-2-oxopyrrolidin-3-yl]methyl]propyl]benzamide]: the IC50 stood at 3 nM. For `O=C(Nc1ccc(Cl)cc1C(=O)N[C@@H](C[C@@H]1CCNC1=O)C(=O)C(=O)NC1CC1)OC1CCC1` [Example 161, cyclobutyl N-[4-chloro-2-[[(1S)-3-(cyclopropylamino)-2,3-dioxo-1-[[(3S)-2-oxopyrrolidin-3-yl]methyl]propyl]carbamoyl]phenyl]carbamate] the value was 5.9 nM. For `CNC(=O)C(=O)[C@H](C[C@@H]1C[C@@H](C)NC1=O)NC(=O)c1cc(Cl)ccc1NC(=O)c1cccc(C(F)(F)F)n1` [Example 26, N-[4-chloro-2-[[(1S)-3-(methylamino)-1-[[(3S,5R)-5-methyl-2-oxo-pyrrolidin-3-yl]methyl]-2,3-dioxo-propyl]carbamoyl]phenyl]-6-(trifluoromethyl)pyridine-2-carboxamide] the value was 17.4 nM; for `C[C@@H]1C[C@@H](C[C@H](NC(=O)c2cc(Cl)ccc2NC(=O)[C@H]2CC2(F)F)C(=O)C(=O)NC2CC2)C(=O)N1` [Example 8, 5-chloro-N—((S)-4-(cyclopropylamino)-1-((3S,5R)-5-methyl-2-oxopyrrolidin-3-yl)-3,4-dioxobutan-2-yl)-2-((R)-2,2-difluorocyclopropane-1-carboxamido)benzamide], 10.1 nM; for `CNC(=O)C(=O)[C@H](C[C@@H]1C[C@@H](C)NC1=O)NC(=O)c1cc(Cl)ccc1NC(=O)OCC1CC1(F)F` (stereo partly drawn) [Example 186, (2,2-difluorocyclopropyl)methyl N-[4-chloro-2-[[(1S)-3-(methylamino)-1-[[(3S,5R)-5-methyl-2-oxo-pyrrolidin-3-yl]methyl]-2,3-dioxo-propyl]carbamoyl]phenyl] carbamate], 2.5 nM.

Source of the values: US20240228535A1 (priority 2022, published 2024).
